Assay results: patent publication US20090131354A1, “miR-126 REGULATED GENES AND PATHWAYS AS TARGETS FOR THERAPEUTIC INTERVENTION” (priority 2007, published 2009)

Test system: A549 cells
Assay: mRNA array gene expression analysis after transfection
Assay type: cell-based, human
Conditions: A549, 30 nM

## hsa-miR-126 (UCGUACCGUGAGUAAUAAUGC; synthetic pre-miR form, further chemistry not given here) [Synthetic hsa-miR-126 (Pre-miR™-hsa-miR-126, Ambion cat. no. AM17100)]
  Δ log2 DIPA mRNA: −0.8054 log2
  Δ log2 DKFZP586A0522 mRNA: 1.054 log2
  Δ log2 DLG5 mRNA: −1.467 log2
  Δ log2 DNAJB9 mRNA: 0.9599 log2
  Δ log2 DPYSL3 mRNA: −0.947 log2
  Δ log2 DSU mRNA: 0.9423 log2
  Δ log2 DUSP6 mRNA: 0.7153 log2
  Δ log2 EEF1D mRNA: 0.9871 log2
  Δ log2 EFHD2 mRNA: −1.109 log2
  Δ log2 EGFR mRNA: −1.333 log2
  Δ log2 EHF mRNA: 2.017 log2
  Δ log2 EML1 mRNA: −1.062 log2
  Δ log2 ENPP4 mRNA: 0.8064 log2
  Δ log2 EPHB2 mRNA: −0.8763 log2
  Δ log2 ERBB3 mRNA: 1.041 log2
  Δ log2 EREG mRNA: −0.7398 log2
  Δ log2 F2RL1 mRNA: −0.7846 log2
  Δ log2 F5 mRNA: 1.115 log2
  Δ log2 F8A1 mRNA: −0.8485 log2
  Δ log2 FAM46A mRNA: 0.8499 log2
  Δ log2 FAS mRNA: 0.9486 log2
  Δ log2 FBXO11 mRNA: 0.8295 log2
  Δ log2 FCMD mRNA: −0.8718 log2
  Δ log2 FGB mRNA: 1.118 log2
  Δ log2 FGFR1 mRNA: −0.7031 log2
  Δ log2 FGFR4 mRNA: 0.9059 log2
  Δ log2 FGL1 mRNA: 2.076 log2
  Δ log2 FLJ11184 mRNA: −0.9264 log2
  Δ log2 FLJ13910 mRNA: 1.05 log2
  Δ log2 FLJ20364 mRNA: −1.021 log2
  Δ log2 FLJ21159 mRNA: −1.12 log2
  Δ log2 FLJ31568 mRNA: 0.732 log2
  Δ log2 FLRT3 mRNA: 1.34 log2
  Δ log2 FMO5 mRNA: 1.277 log2
  Δ log2 FOSL1 mRNA: −0.9348 log2
  Δ log2 GABRA5 mRNA: −1.612 log2
  Δ log2 GALNT4 mRNA: 1.916 log2
  Δ log2 GALNT12 mRNA: −0.8981 log2
  Δ log2 GART mRNA: −1.022 log2
  Δ log2 GATM mRNA: 1.127 log2
  Δ log2 GCH1 mRNA: 0.9389 log2
  Δ log2 GLI2 mRNA: −0.8678 log2
  Δ log2 GLT25D1 mRNA: −1.17 log2
  Δ log2 GLUL mRNA: 0.734 log2
  Δ log2 GNA13 mRNA: 0.7394 log2
  Δ log2 GPR64 mRNA: −1.209 log2
  Δ log2 GREM1 mRNA: −1.049 log2
  Δ log2 GTF2B mRNA: −0.9795 log2
  Δ log2 GTSE1 mRNA: −0.7712 log2
  Δ log2 H2AFY mRNA: −0.841 log2
  Δ log2 H3F3B mRNA: −1.391 log2
  Δ log2 HERC4 mRNA: −1.409 log2
  Δ log2 HES1 mRNA: 0.8154 log2
  Δ log2 HIPK3 mRNA: 0.8255 log2
  Δ log2 HKDC1 mRNA: −0.8911 log2
  Δ log2 HLA-DMA mRNA: 1.267 log2
  Δ log2 HLA-DMB mRNA: 1.253 log2
  Δ log2 HMGA1 mRNA: −0.8703 log2
  Δ log2 IER3IP1 mRNA: 1.015 log2
  Δ log2 IFI16 mRNA: 0.7014 log2
  Δ log2 IFIT1 mRNA: 0.766 log2
  Δ log2 IL6R mRNA: 1.8 log2
  Δ log2 IL6ST mRNA: 0.7356 log2
  Δ log2 IL11 mRNA: −1.98 log2
  Δ log2 ILK mRNA: −1.193 log2
  Δ log2 INHBC mRNA: 0.988 log2
  Δ log2 ITGAV mRNA: −1.397 log2
  Δ log2 ITGB4 mRNA: −1.084 log2
  Δ log2 IVNS1ABP mRNA: −1.126 log2
  Δ log2 JUN mRNA: −1.257 log2
  Δ log2 KCNJ2 mRNA: 0.9432 log2
  Δ log2 KCNJ16 mRNA: 0.8637 log2
  Δ log2 KCNK5 mRNA: 0.9088 log2
  Δ log2 KCTD9 mRNA: −1.102 log2
  Δ log2 KIAA0152 mRNA: −1.121 log2
  Δ log2 KIAA0317 mRNA: −0.9984 log2
  Δ log2 KIAA0882 mRNA: 0.7061 log2
  Δ log2 KLC2 mRNA: −1.308 log2
  Δ log2 KLF4 mRNA: −1.01 log2
  Δ log2 LARP6 mRNA: −1.273 log2
